Active and inactive are the calls of the source.

We go through ten molecules from ChEMBL document CHEMBL1201862, “PubChem BioAssay data set” (2004).

Assay [1] can be described thus: inhibitors of firefly luciferase expression or activity, dose response, H4 neuroglioma cells, luminescence (AID 1990). The assay is classed as functional, cell-based.
Assay [2] has as its system BJ. The experiment in a line: cytotoxicity toward BJ-TERT fibroblasts, dose response, cell-based, RAS-independent, luminescence (AID 1933). Conditions: Homo sapiens. The assay is classed as functional.
Assay [3] in a line: Luminescence Cell-Based Dose Response HTS to Identify Inhibitors of 5'UTR Stem-Loop Driven Prion Protein mRNA Translation in H4 Neuroglioblastoma Cells. [Related pubchem assays: 1827 (Project Summary), 1813 (Primary HTS)]. The assay is classed as functional.
For assay [4], the target named is T1, Heat shock factor protein 1 (Mus musculus, UniProt P38532).
T1 sequence (P38532 whole entry): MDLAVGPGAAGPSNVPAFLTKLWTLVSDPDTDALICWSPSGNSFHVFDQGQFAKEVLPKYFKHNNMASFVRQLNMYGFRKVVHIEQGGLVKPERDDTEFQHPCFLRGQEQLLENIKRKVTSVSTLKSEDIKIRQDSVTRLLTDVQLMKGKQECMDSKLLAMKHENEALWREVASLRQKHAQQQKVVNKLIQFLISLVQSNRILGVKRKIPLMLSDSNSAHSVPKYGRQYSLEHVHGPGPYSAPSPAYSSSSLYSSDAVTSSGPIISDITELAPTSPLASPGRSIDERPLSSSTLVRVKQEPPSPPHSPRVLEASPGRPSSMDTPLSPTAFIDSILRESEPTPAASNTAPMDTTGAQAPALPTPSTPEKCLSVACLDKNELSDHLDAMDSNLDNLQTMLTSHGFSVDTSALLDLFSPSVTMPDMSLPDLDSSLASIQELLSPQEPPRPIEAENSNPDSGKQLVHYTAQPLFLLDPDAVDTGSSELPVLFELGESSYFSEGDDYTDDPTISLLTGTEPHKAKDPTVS
Put plainly: inhibition of MG132-induced HSE-luciferase signal, confirmation, cell-based, NIH3T3, luminescence, dose retest (AID 2382).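 Also: NIH3T3 fibroblasts with HSF1-driven luciferase reporter stressed by proteasome inhibitor MG132; luminescence from HSF1-driven luciferase expression after 8 hours of MG132 stress.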 The assay is classed as functional.

Assay [5] can be described thus: inhibitors of SNCA 5'UTR-driven reporter translation, confirmation, H4 neuroglioma cells, luminescence (AID 1988). The assay is classed as functional, cell-based.
The subject of assay [6] is BJ. Put plainly: cells. The assay is classed as functional, cell-based. Conditions: Homo sapiens.
Assay [7] in a line: cytotoxicity in HPDE-C7 cells, cell-based, fluorescence, HTS (AID 430). The assay is classed as functional. Conditions: Homo sapiens.
Assay [8] can be described thus: cytotoxicity in KRAS-transformed pancreatic duct cells, primary screen, cell-based, fluorescence, HTS (AID 431). The assay is classed as functional. Conditions: Homo sapiens.
Assay [9] can be described thus: growth suppression of PTEN-null colon cells, dose response, cell-based, HCT116 PTEN knockout (AID 1047).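 Also: HCT116 colon tumor cells with PTEN knocked out; cells exposed to compound for 60 hours before readout; potency for loss of cell viability measured by luminescence.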 The assay is classed as functional.
Assay [10] is described as follows: growth suppression of beta-catenin-knockout colon cells, dose response, cell-based, HCT116, human colon tumor (AID 1045).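 Also: HCT116 colon tumor cells with beta catenin knocked out; cells exposed to compound for 60 hours.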 It counts as functional.
The subject of assay [11] is BJ. The experiment in a line: cytotoxicity toward BJ-TERT-LT-ST fibroblasts, dose response, cell-based, RAS-independent, luminescence (AID 1935).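 Also: BJ fibroblasts immortalized with TERT plus LT and ST oncogenes.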 The assay is classed as functional. The note with it: Homo sapiens.
Assay [12] is described as follows: cytotoxicity toward DRD oncogenic fibroblasts, dose response, cell-based, non-viral oncogenic, luminescence (AID 1934). The assay is classed as functional. The note with it: Homo sapiens.
Assay [13] concerns the target Voltage-dependent T-type calcium channel subunit alpha-1H (Homo sapiens, UniProt O95180). The assay is classed as functional.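 Also: channel activity triggered by adding a high calcium stimulation buffer.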
A further assay concerns HEK293. The experiment in a line: inhibitors of LMP1-driven NF-kB reporter, dose response, cell-based, HEK293, luciferase, cherry-pick (AID 588343). The assay is classed as functional. The note with it: Homo sapiens.
Assay [14] has as its system BJ. Put plainly: cytotoxicity toward Ras-transformed BJeLR fibroblasts, dose response, cell-based, alamar blue fluorescence, cherrypicked samples (AID 2631).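 Also: confirmatory dose-response assay in RAS-dependent BJ fibroblasts engineered with TERT, LT and ST, with cytotoxicity read by fluorescence.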 It counts as functional. The note with it: Homo sapiens.
Assay [15] is described as follows: inhibitors of HIV Env-driven cell fusion, dose response, cherry-pick (AID 652057). The assay is classed as functional, cell-based.
The nature of assay [16]: CEM21 lymphoblast cell cytotoxicity, dose response, cytotoxicity control for viral fusion inhibitor project, CellTiter-Glo luminescence, cherry-picked (AID 652042).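 Also: potency for signal decrease meaning cytotoxicity.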 It counts as functional, cell-based. (In ATP-based viability assays light output follows the ATP content of the culture.)
Assay [17] can be described thus: ZM109 Env clade C HIV-1 fusion inhibitors, dose response, HeLa effector, CEM target cells, luciferase, cherry-pick (AID 652058). It counts as functional, cell-based.
A further assay deals with Paired box protein Pax-8 (Homo sapiens, UniProt Q06710). The experiment in a line: inhibitors of PAX8-driven TPO luciferase reporter, dose response, RMG-I cells, cherry-pick (AID 687027).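 Also: luciferase reporter driven by Pax8 target thyroperoxidase promoter measured by SteadyGlo luminescence.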 The assay is classed as functional, cell-based. (In general: In a reporter assay the amount or activity of a reporter protein is the signal.)
Assay [18] in a line: off-target signal loss in HeLa-CEM21 co-culture – HeLa F-luc CTL cells, cherry-picked, counter-screen for HIV-1 Env fusion inhibitor project, dose response (AID 652040).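 Also: potency for signal decrease marking cytotoxic or nonspecific inhibition.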 It counts as functional, cell-based. On the technique in general: The purpose of a counterscreen is to sort out artefacts and off-target activity.
Assay [19] is described as follows: inhibitors of clade B AD8 Env fusion, dose response, cell-based, cherry-pick (AID 652062).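 Also: luciferase signal from cell-cell fusion driven by HIV-1 clade B AD8 Env; potency is for inhibitors of fusion seen as a drop in luminescence.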 The assay is classed as functional.
The nature of assay [20]: non-specific cell cytotoxicity, dose response, cytotoxicity control for PAX8 inhibitor project, plate reader, dry powder samples (AID 743021). The assay is classed as functional, cell-based.
A short description of assay [21]: A549 cell cytotoxicity, dose response, cytotoxicity control, plate reader, cherry-pick, antagonist series (AID 743412). It counts as functional, cell-based.
A short description of assay [22]: HepG2 cell cytotoxicity, dose response, cytotoxicity control, plate reader, cherry-pick, antagonist series (AID 743416). The assay is classed as functional, cell-based.
A short description of assay [23]: LGR2 antagonists, dose response, cell-based, HEK293, CRE-luciferase reporter, cherry pick, set 2 (AID 743343).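 Also: transfected cells were stimulated with diluted bursicon conditioned medium after compound addition.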 It counts as functional.
Assay [24] is described as follows: MC4R antagonists, dose response, counter-screen for LGR2 antagonist project, cell-based, plate reader, cherry pick (AID 743444).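 Also: transfected HEK 293 cells stimulated with alpha-MSH peptide; potency of inhibitors of the alpha-MSH evoked signal.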 It counts as functional.
A short description of assay [25]: HEK293 cell cytotoxicity, dose response, cytotoxicity control, plate reader, cherry-picked samples (AID 743446). It counts as functional, cell-based.
Assay [26] in a line: Luminescence-based cell-based high throughput dose response assay to identify activators of the DAF-12 from the parasite S. stercoralis (ssDAF-12). The assay is classed as functional.
Assay [27] has as its target Oxysterols receptor LXR-beta (Homo sapiens, UniProt P55055). The experiment in a line: LXR agonists, Gal4 luciferase reporter, dose response, counter-screen for ssDAF-12 agonist project, cell-based, luminescence, HEK293, S. stercoralis campaign (AID 720737). It counts as functional. Conditions: read-out: IC50 (the source's name).
A short description of assay [28]: inhibitors of PGC1a acetylation in cells, dose response, cell-based, cherry-picked samples (AID 720514).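 Also: potency may reflect raised or lowered acetylation signal.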 The assay is classed as functional.
The nature of the next assay: cells. The note with it: HEK293.
Assay [29] deals with Luciferin 4-monooxygenase (Photinus pyralis, UniProt P08659). Put plainly: firefly luciferase enzyme inhibitors, dose response, biochemical, luminescence (AID 1891).
Assay [30] can be described thus: Luminescence Cell-Based Dose Confirmation HTS to Identify Inhibitors of Platelet Dense Granule Release. [Related pubchem assays: 1663 (Primary HTS), 1678 (Summary of Project)]. It counts as functional.
Assay [31] can be described thus: A2780 ovarian cancer cell cytotoxicity, dose response, cytotoxicity control, plate reader, dry powder samples (AID 743046). It counts as functional, cell-based.
A short description of assay [32]: NIH:OVCAR-3 ovarian cancer cell cytotoxicity, dose response, PAX8 inhibitor project, plate reader, dry powder samples (AID 743044). It counts as functional, cell-based.
Assay [33] is described as follows: IOSE-T80 ovarian epithelial cell cytotoxicity, dose response, cytotoxicity control for PAX8 inhibitor project, plate reader, dry powder samples (AID 743045). It counts as functional, cell-based.
Assay [34] can be described thus: IGROV1 ovarian cancer cell cytotoxicity, dose response, PAX8 inhibitor project, plate reader, dry powder samples (AID 743043). The assay is classed as functional, cell-based. The note with it: IGROV-1.
Assay [35] in a line: cytotoxicity in OVCAR8 ovarian cancer cells, dose response, PAX8 project, cell-based, plate reader, dry powder samples (AID 743197). The assay is classed as functional. Conditions: OVCAR-8.
The nature of assay [36]: HIV Env cell-cell fusion inhibitors, dose response, HIV entry, plate reader, dry powder (AID 687023). The assay is classed as functional, cell-based.
Assay [37] can be described thus: CEM21 cell cytotoxicity, dose response, cytotoxicity control, plate reader, dry powder (AID 687026). The assay is classed as functional, cell-based.

Paired box protein Pax-8, sequence (Q06710 whole entry, the tested form may be a part): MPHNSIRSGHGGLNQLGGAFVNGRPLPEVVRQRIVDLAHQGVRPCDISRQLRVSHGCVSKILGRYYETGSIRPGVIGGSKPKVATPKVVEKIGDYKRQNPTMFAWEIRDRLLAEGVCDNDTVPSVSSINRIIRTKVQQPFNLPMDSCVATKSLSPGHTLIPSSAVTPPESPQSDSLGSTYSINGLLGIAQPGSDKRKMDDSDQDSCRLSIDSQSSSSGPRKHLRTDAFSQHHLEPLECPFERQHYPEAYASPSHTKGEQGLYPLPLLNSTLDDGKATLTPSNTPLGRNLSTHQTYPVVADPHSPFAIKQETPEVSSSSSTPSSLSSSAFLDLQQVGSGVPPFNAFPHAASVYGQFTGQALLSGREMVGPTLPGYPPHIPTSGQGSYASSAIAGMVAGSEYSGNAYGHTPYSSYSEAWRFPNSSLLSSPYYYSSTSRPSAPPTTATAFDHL
Oxysterols receptor LXR-beta, sequence (P55055 whole entry, the tested form may be a part): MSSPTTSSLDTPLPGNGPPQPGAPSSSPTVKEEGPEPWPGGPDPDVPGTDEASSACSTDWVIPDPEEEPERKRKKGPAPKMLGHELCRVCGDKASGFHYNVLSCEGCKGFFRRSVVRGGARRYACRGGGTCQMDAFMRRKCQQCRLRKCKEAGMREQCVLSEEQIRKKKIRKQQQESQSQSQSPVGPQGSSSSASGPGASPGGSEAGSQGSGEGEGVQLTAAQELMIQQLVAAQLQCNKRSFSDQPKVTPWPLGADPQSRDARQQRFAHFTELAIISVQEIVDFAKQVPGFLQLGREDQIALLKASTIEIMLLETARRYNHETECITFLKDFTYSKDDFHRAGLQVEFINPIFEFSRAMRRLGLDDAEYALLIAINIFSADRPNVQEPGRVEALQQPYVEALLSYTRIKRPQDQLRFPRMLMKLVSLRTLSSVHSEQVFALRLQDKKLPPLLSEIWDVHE
Voltage-dependent T-type calcium channel subunit alpha-1H, sequence (O95180 whole entry): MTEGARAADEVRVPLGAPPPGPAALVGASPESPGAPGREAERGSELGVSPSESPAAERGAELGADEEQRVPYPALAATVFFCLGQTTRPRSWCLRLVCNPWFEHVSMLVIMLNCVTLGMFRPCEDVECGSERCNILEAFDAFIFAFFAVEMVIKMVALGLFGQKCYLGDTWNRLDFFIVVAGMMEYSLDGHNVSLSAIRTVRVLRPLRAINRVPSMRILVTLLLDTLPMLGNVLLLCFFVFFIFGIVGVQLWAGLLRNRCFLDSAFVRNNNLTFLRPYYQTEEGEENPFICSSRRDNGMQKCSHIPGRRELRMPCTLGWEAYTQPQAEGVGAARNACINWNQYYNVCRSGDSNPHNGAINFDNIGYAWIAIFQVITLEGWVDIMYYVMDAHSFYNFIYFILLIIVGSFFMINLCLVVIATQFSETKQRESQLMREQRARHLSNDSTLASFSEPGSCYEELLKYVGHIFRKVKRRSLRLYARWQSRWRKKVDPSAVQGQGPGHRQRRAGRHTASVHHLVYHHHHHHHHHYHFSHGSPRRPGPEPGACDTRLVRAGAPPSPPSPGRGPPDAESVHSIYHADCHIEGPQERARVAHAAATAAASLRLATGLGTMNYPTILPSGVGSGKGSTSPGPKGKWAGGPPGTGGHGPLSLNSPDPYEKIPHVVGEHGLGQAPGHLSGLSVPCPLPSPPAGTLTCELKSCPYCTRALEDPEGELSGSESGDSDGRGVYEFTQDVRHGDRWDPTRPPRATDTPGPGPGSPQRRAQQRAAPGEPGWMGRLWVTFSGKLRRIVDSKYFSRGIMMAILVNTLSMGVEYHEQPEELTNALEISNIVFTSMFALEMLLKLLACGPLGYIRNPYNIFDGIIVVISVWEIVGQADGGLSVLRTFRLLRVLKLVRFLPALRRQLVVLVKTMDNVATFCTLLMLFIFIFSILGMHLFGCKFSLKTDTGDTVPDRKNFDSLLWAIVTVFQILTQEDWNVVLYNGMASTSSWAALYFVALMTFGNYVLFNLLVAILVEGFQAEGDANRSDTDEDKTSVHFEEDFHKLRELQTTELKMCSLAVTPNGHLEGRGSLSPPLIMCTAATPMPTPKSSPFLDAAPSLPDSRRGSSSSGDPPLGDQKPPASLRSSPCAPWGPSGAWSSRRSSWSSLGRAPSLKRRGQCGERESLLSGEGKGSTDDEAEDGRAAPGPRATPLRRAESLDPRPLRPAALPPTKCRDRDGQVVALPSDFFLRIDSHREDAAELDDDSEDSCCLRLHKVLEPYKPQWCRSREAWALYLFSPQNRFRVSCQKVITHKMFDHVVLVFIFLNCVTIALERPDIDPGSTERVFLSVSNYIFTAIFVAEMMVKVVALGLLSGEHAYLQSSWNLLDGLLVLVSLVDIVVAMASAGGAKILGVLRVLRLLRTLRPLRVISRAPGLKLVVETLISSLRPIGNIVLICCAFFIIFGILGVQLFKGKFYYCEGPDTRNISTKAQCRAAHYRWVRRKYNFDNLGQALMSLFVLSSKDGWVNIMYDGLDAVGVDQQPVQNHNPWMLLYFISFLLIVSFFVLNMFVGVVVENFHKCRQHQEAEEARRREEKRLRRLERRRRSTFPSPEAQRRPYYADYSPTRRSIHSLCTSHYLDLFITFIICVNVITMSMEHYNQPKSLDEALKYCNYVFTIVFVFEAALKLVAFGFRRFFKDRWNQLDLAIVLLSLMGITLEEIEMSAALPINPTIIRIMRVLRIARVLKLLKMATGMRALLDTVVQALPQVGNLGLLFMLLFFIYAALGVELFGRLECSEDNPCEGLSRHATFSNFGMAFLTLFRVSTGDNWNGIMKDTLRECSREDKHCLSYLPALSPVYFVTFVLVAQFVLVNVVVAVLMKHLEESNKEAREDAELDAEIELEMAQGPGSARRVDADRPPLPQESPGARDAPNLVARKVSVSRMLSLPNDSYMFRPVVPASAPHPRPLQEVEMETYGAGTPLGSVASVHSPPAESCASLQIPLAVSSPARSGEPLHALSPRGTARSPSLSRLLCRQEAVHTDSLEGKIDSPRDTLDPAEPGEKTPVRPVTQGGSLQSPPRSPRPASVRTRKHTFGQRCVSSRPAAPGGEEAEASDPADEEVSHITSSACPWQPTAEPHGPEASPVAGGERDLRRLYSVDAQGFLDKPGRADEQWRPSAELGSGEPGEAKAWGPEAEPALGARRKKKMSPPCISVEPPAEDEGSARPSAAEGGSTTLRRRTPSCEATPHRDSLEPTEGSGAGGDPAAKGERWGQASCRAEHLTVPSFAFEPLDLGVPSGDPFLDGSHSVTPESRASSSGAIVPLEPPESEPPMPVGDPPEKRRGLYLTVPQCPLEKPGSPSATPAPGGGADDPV
Luciferin 4-monooxygenase, sequence (P08659 whole entry): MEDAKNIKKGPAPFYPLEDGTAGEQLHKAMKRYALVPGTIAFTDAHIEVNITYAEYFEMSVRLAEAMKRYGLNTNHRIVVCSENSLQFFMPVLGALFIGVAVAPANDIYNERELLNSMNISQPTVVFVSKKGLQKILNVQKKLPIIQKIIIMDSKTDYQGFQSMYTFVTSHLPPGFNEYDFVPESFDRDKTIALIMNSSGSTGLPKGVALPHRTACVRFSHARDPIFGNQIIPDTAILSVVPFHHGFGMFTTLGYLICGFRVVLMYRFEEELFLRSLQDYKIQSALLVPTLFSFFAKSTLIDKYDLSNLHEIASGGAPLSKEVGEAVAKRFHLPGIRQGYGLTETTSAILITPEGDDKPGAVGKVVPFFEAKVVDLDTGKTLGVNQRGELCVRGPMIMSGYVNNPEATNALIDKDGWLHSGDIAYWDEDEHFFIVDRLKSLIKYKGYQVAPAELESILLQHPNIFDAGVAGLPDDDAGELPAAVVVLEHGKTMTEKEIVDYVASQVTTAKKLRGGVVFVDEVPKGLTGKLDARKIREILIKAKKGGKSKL

Broadly, the AC50 is the concentration at which the activity in the assay is half-maximal. In the case of `O=S(=O)(c1ccc2c(c1)C(=NO)c1cc(S(=O)(=O)N3CCCCC3)ccc1-2)N1CCCCC1`, the EC50 in [1] was 6.01 µM (active); in the assay on BJ [2], 1.02 µM (inconclusive); in assay [3], 7.79 µM (active); in assay [4], 0.749 µM (active); in assay [5], 3.8 µM (active); in the assay on BJ [6], 2.71 µM (inconclusive). Further, the EC50 was 0.3 µM (active) in assay [7]; 0.39 µM (active) in [8]; 0.412 µM (active) in assay [9]; 0.352 µM (active) in [10]; 2.65 µM (inconclusive) in the assay with BJ [11]; 2.68 µM (inconclusive) in assay [12]. The values for the EC50 (in assay [13]; in the assay with BJ [14]) were 12.3 µM (active) and 2.97 µM (active), respectively. Moreover, the AC50 with HEK293 is 2.99 µM (active); in assay [15], 0.73 µM (active); in [16], 0.287 µM (active); in assay [17] it was 0.794 µM (active); at Paired box protein Pax-8 it was 0.871 µM (active); in assay [18] it was 0.767 µM (active). For the same molecule, the AC50 in [19] was 0.879 µM (active); in assay [20], 1.5 µM (active).

On to `CCCCOc1ccc(-c2cnc3ccccc3n2)cc1`, for which the AC50 in assay [21] was > 52 µM (inactive); in [22], > 52 µM (inactive); in assay [23], 4.56 µM (active); in assay [24] it was 6.65 µM (active); in assay [25], > 52 µM (inactive).

Usually IC50 stands for the concentration that inhibits the measured activity by half. On to `N#C/C(=C\c1ccc[nH]1)C(=O)Nc1ccccc1F`, for which the IC50 in [26] was > 67.5 µM (inactive). In addition, the EC50 in assay [27] was > 67.5 µM (inactive).

For the molecule `COc1ccc(F)cc1CN1CCN(CC(=O)N2CCc3ccccc32)CC1`, the AC50 in assay [28] was 24.9 µM (active).

With `COc1cccc(Nc2nc(C(N)Cc3ccc(F)cc3)cs2)n1` (stereo unspecified), the AC50 in assay [21] was 14.5 µM (active); in assay [22] it was 13.9 µM (active); in [23], 28.5 µM (active); in assay [24], 31.1 µM (active); in assay [25], 16.8 µM (active).

As to `CCN1C(=O)c2cccc3c(S(=O)(=O)N(C)C)ccc1c23`, in the assay “cells”, the AC50 was > 52 µM (inactive).

On to `N/C(=N\N=C\c1cccc(O)c1)c1nonc1N`, for which the EC50 is 3.47 µM (active) in [29], 1.75 µM (active) in [30] and > 67.5 µM (inactive) in [27]. Further, the IC50 in assay [26] is > 67.5 µM (inactive).

`CS(=O)(=O)N1CC(=O)N2[C@H](CO)[C@H](c3ccc(C#CCC4CCCC4)cc3)[C@H]2C1`: the results for the half-maximal activity concentration (AC50) (on Paired box protein Pax-8; in assay [31]; in assay [32]) were 5.98 µM (active), 33.1 µM (active) and 23 µM (active), respectively.

Regarding `O=C(C[C@@H]1CC[C@@H]2[C@H](COC[C@H](O)CN2S(=O)(=O)c2ccccc2Cl)O1)N1CCC(Cc2ccccc2)CC1`, the AC50 on Paired box protein Pax-8 is 13.3 µM (active); in assay [33] it was 31.5 µM (active); in [34], 37.6 µM (active); in [35], 44.9 µM (active).

As to `C[C@H]1CN([C@@H](C)CO)C(=O)c2ccccc2-c2ccccc2CO[C@H]1CN(C)S(=O)(=O)c1ccccc1C#N`, the AC50 in assay [15] is 0.838 µM (active); in [17], 3.49 µM (active); in assay [36] it was 47 µM (active); in assay [37], > 70 µM (inactive).
